Assay results taken from US4895842A, “Phenylalanine derivative and proteinase inhibitor” (Shosuke Okamoto, priority 1985, dated 1990).
Counter-ions that a name gives are not always drawn. Like-named read-outs stand apart in the source and are kept apart here.

Columns and labels:
bovine trypsin = molecular target: T1, bovine trypsin (Bos taurus, UniProt P00760); experiment: Antitrypsin activity: inhibition of S-2238 decomposition; type: biochemical; details: S-2238 substrate, read-out: Trypsin S-2238 (I50)
T1 sequence (P00760 24-246): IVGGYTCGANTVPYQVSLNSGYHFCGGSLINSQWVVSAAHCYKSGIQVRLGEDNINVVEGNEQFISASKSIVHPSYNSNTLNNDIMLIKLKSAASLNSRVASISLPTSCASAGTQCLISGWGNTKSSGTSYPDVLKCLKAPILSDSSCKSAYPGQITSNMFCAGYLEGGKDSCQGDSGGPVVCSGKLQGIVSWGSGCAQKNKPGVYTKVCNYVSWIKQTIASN
Method: Determination of inhibition activity against S-2238 decomposition
An inhibitor sample is dissolved in a 0.05M Tris-imidazole buffer solution (pH=8.1) and 125 μl of a 1 mM S-2238 solution is added to make the total volume to 1.20 ml. The mixture is incubated at a temperature of 37° C. for 5 minutes in a constant temperature bath. To this mixture, 0.05 ml of bovine trypsin is added and the absorbance, at 405 nm, of the p-nitroaniline formed per minute is determined at a temperature of 37° C. by using the so-called initial velocity method. Thus, the concentration I50 (μmol) of the inhibitor sample, at which the absorbance is one half (i.e., 1/2) of that obtained in the absence of the inhibitor sample, is determined.

bovine thrombin [1] = molecular target: T2, bovine thrombin (Bos taurus, UniProt P00735); experiment: Antithrombin activity: inhibition of fibrin formation from fibrinogen; type: biochemical
Method: (i) Determination of inhibition activity against fibrin formation
An inhibitor sample is dissolved in a 0.18M borate-physiological salt buffer solution (pH=7.4) to make the total volume to 500 μl. To this solution, 400 μl of a 0.2% bovine fibrinogen solution and 100 μl of a 4 unit/ml bovine thrombin solution are added at a temperature of 37° C. in a constant temperature bath. Thus, a coagulation time is determined. The inhibitor concentration I50 (μmol), at which the coagulation time obtained in the absence of the inhibitor is extended twice, is determined.

human plasmin [2] = molecular target: T3, human plasmin (Homo sapiens, UniProt P00747); experiment: Antiplasmin activity: inhibition of fibrin decomposition; type: biochemical; details: Table 2; concentration at which fibrin dissolution time is extended twice, pH 7.4, 37° C.; read-out: Plasmin Fibrin (I50)
T3 sequence (P00747 581-810 limits assumed): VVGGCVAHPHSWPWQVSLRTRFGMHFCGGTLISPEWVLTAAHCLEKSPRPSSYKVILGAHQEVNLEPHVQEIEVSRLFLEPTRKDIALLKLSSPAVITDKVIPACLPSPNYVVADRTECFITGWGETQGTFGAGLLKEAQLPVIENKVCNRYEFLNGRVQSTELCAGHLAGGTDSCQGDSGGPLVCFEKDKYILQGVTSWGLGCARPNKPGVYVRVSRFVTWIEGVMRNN
T3 sequence (P00747 97-580 partner limits assumed): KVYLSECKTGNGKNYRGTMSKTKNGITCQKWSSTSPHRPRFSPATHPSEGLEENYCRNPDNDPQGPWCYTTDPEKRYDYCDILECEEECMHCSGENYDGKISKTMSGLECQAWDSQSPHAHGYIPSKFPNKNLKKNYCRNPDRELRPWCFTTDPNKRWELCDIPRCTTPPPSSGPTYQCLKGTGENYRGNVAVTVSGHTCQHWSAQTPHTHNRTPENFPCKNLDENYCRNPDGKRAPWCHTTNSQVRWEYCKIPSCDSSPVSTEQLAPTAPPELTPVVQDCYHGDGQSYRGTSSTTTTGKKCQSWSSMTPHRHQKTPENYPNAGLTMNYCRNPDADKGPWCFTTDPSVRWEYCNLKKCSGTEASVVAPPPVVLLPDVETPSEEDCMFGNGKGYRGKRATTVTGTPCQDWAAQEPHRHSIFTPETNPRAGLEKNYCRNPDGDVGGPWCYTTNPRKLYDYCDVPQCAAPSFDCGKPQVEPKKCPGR
Method: (i) Determination of inhibition activity for fibrin decomposition
An inhibitor sample is dissolved in a 0.18M borate-physiological salt buffer solution (pH=7.4) to make the total volume to 600 μl. To this buffer solution, 200 μl of a 0.2% bovine fibrinogen, 100 μl of a 0.3 casein unit/ml human plasmin solution, and 100 μl of a 50 unit/ml bovine thrombin solution, all dissolved in the above-mentioned buffer, are added at a temperature of 37° C. in a constant temperature bath. Then, the dissolution time of the fibrin mass formed above is determined.

human plasmin [3] = molecular target: T3, human plasmin; experiment: biochemical; details: read-out: Plasmin S-2251 (I50)
Method: An inhibitor sample is dissolved in a 0.05M Tris-hydrochloric acid buffer solution (pH=7.4) to make the total volume of 400 μl. […] Then, 50 μl of a 0.2 casein unit/ml human plasmin is added and the mixture is incubated at a temperature of 37° C. for 4 minutes. Thereafter, the reaction is stopped by adding 50 μl of 50% acetic acid.
Thus, the concentration I50 (μmol) of the inhibitor sample, at which the absorbance is one half (i.e., 1/2) of that obtained in the absence of the inhibitor, is determined.

bovine thrombin [4] = molecular target: T2, bovine thrombin; experiment: Antithrombin activity: inhibition of S-2238 decomposition; type: biochemical
Method: (ii) Determination of inhibition activity for S-2238 decomposition
An inhibitor sample is dissolved in a 0.05M Tris-hydrochloric acid buffer solution (pH=8.3) to make a total volume of 400 μl. To this solution, 50 μl of a 0.2 mM S-2238 solution is added and the mixture is incubated at a temperature of 37° C. for 5 minutes in a constant temperature bath. Then, 50 μl of a 0.2 unit/ml bovine thrombin solution is added thereto and the absorbance, at 405 nm, of the p-nitroaniline formed per minute is determined at a temperature of 37° C. by using the so-called initial velocity method. Thus, the concentration I50 (μmol) of the inhibitor sample at which the absorbance is one half (i.e., 1/2) of that obtained in the absence of the inhibitor sample, is determined.

human plasma kallikrein = human plasma kallikrein (Homo sapiens, UniProt P03952); experiment: Anti-plasma kallikrein activity: inhibition of S-2302 decomposition; type: biochemical; details: S-2302 substrate, read-out: Plasma Kallikrein S-2302 (I50)
Chain of human plasma kallikrein (P03952 391-638 limits assumed): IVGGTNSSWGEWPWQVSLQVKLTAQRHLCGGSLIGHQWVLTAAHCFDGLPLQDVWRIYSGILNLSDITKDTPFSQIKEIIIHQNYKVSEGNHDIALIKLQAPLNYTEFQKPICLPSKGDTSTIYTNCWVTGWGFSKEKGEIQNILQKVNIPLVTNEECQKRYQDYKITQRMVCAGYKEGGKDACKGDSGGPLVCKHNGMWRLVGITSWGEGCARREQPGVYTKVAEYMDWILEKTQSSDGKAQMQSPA
Chain of human plasma kallikrein (P03952 20-390 partner limits assumed): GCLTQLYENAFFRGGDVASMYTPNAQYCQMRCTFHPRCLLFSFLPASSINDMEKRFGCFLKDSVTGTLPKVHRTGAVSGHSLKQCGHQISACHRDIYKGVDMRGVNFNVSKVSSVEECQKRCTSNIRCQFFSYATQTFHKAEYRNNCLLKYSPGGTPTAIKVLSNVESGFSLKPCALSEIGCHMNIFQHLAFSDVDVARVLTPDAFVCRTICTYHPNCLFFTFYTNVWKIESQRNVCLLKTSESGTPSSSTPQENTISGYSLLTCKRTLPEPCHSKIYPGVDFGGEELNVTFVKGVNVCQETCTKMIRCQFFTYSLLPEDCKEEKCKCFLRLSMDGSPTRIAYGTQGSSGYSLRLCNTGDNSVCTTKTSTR

human urokinase = human urokinase (Homo sapiens, UniProt P00749); experiment: biochemical; details: S-2444 substrate, read-out: Urokinase S-2444 (I50)
Method: Determination of inhibition activity for S-2444 decomposition
An inhibitor sample is dissolved in a 0.05M Tris-hydrochloric acid buffer solution (pH=8.8) to make the total volume to 400 μl. To this solution, 50 μl of a 1 mM S-2444 solution is added and the mixture is incubated at a temperature of 37° C. for 5 minutes in a constant temperature bath. Then, 50 μl of a 500 unit/ml human urokinase is added and the mixture is incubated at a temperature of 37° C. for 5 minutes. Thereafter, 50 μl of 50% acetic acid is added to terminate the reaction. The absorbance of the p-nitroaniline formed in the reaction mixture is measured at 405 nm. Thus, the concentration I50 (μmol) of the inhibitor sample, at which the absorbance is one half (i.e., 1/2) of that obtained in the absence of the inhibitor sample, is determined.

[5] = Table 2, S-2238 substrate, pH 8.3, 37° C., read-out: Thrombin S-2238 (I50)

Row | Structure (SMILES) | IC50 (bovine trypsin; Table 2, pH 8.1, 37° C.) [µM] | IC50 (bovine thrombin [1]) [µM] | IC50 (human plasmin [2]) [µM] | IC50 (human plasmin [3]) [µM] | IC50 (bovine thrombin [4]; [5]) [µM] | IC50 (human plasma kallikrein; Table 2, pH 7.8, 37° C.) [µM] | IC50 (human urokinase; Table 2, pH 8.8, 37° C.) [µM] | IC50 (bovine thrombin [4]) [µM] | IC50 (bovine trypsin; Table 4, comparative compounds of Table 3, pH 8.1) [µM] | IC50 (bovine thrombin [1]; Table 4, comparative compounds of Table 3, coagulation time extended twice, read-out: Thrombin Fibrinogen (I50)) [µM] | IC50 (bovine thrombin [4]; Table 4, comparative compounds of Table 3, S-2238 substrate, pH 8.3, read-out: Thrombin S-2238 (I50)) [µM] | IC50 (human plasma kallikrein; Table 4, comparative compounds of Table 3, pH 7.8) [µM] | IC50 (human urokinase; Table 4, comparative compounds of Table 3, pH 8.8) [µM]
1 | NC[C@H]1CC[C@H](C(=O)N[C@@H](Cc2ccccc2)C(=O)Nc2ccc(C(=O)c3ccccc3)cc2)CC1 [Compound No. 1] | 0.3 | > 50 | 40 | 27 | > 100 | 1.9 | 11 |  |  |  |  |  | 
2 | CC(=O)c1ccc(NC(=O)[C@H](Cc2ccccc2)NC(=O)[C@H]2CC[C@H](CN)CC2)cc1 [Compound No. 2, N-(trans-4-aminomethylcyclohexylcarbonyl)-L-phenylalanine 4-acetylanilide] | 1.3 | > 1000 |  |  | > 1000 |  |  |  |  |  |  |  | 
3 | CC(=O)c1ccc(NC(=O)[C@H](Cc2ccc(OCc3ccccc3)cc2)NC(=O)[C@H]2CC[C@H](CN)CC2)cc1 [Compound No. 3, N-(trans-4-aminomethylcyclohexylcarbonyl)-4-benzyloxy-L-phenylalanine 4-acetylanilide] | 0.77 | > 100 | 0.4 | 1.8 | > 200 | 0.63 | 31 |  |  |  |  |  | 
4 | COc1ccc(C[C@H](NC(=O)[C@H]2CC[C@H](CN)CC2)C(=O)Nc2ccc(C(C)=O)cc2)cc1 [Compound No. 6, N-(trans-4-aminomethylcyclohexylcarbonyl)-4-methoxy-L-phenylalanine 4-acetylanilide] | 1.1 | > 500 | 4.6 | 1.3 | 230 | 2 | 42 |  |  |  |  |  | 
5 | CC(=O)c1ccc(NC(=O)[C@H](Cc2ccc(OCc3cccc(Cl)c3)cc2)NC(=O)[C@H]2CC[C@H](CN)CC2)cc1 [Compound No. 35, N-(trans-4-aminomethylcyclohexylcarbonyl)-4-(3-chlorobenzyloxy)-L-phenylalanine 4-acetylanilide methane sulfonate] | 1 | > 50 | 0.095 |  |  |  |  | > 100 |  |  |  |  | 
6 | NC[C@H]1CC[C@H](C(=O)N[C@@H](Cc2ccc(OCc3ccccc3)cc2)C(=O)Nc2ccc(S(N)(=O)=O)cc2)CC1 [Compound No. 47, N-(trans-4-aminomethylcyclohexylcarbonyl)-4-benzyloxy-L-phenylalanine 4-sulfamoylanilide hydrochloride] | 7.5 | > 200 | 1 | 8.9 | > 400 | 4.5 | 130 |  |  |  |  |  | 
7 | NC[C@H]1CC[C@H](C(=O)N[C@@H](Cc2ccc(OCc3ccccc3)cc2)C(=O)Nc2ccnc(Cl)c2)CC1 [Compound No. 59, N-(trans-4-aminomethylcyclohexylcarbonyl)-4-benzyloxy-L-phenylalanine 4-(2-chloro)pyridylamide hydrochloride] | 0.67 | > 250 | 0.18 | 1.4 | > 125 | 0.42 | 40 |  |  |  |  |  | 
8 | CC1CCC(NC(=O)[C@H](Cc2ccc(OCc3ccccc3)cc2)NC(=O)c2ccc(CN)cc2)CC1C (stereo partly drawn) [Compound No. 80, N-(4-aminomethylbenzoyl)-4-benzyloxy-L-phenylalanine 3,4-dimethylcyclohexylamide hydrochloride] | 0.45 | > 50 | 0.33 | 1.1 | > 100 | 17 | > 400 |  |  |  |  |  | 
9 | CC(=O)c1ccc(NC(=O)[C@H](Cc2ccc(Oc3ccc([N+](=O)[O-])cc3)cc2)NC(=O)[C@H]2CC[C@H](CN)CC2)cc1 [Compound No. 95, N-(trans-4-aminomethylcyclohexylcarbonyl)-4-(4-nitrophenoxy)-L-phenylalanine 4-acetylanilide hydrochloride] | 1.5 | > 100 | 0.27 | 0.63 | > 400 | 0.14 | 8 |  |  |  |  |  | 
10 | NCc1ccc(C(=O)N[C@@H](Cc2ccc(OCc3ccccc3)cc2)C(=O)NCc2ccncc2)cc1 [Compound No. 96, N-(4-aminomethylbenzoyl)-4-benzyloxy-L-phenylalanine 4-picolylamide dihydrochloride] | 22 | > 250 | 18 | 29 | > 100 | 350 | > 500 |  |  |  |  |  | 
11 | NC[C@H]1CC[C@H](C(=O)O)CC1 [Table 3 Compound No. 1, tranexamic acid, reference compound] |  |  |  |  |  |  |  |  | > 1000 | > 1000 | > 1000 | > 1000 | > 1000
12 | NC[C@H]1CC[C@H](C(=O)N[C@@H](Cc2ccc(OCc3ccccc3)cc2)C(=O)Nc2ccncc2)CC1 [compound 40] | 1.8 | > 500 | 0.68 |  | > 1000 |  |  |  |  |  |  |  | 
13 | NCC1CCC(C(=O)NC(Cc2ccc(OCc3ccccc3)cc2)C(=O)NCc2ccc(F)cc2)CC1 (stereo not drawn) [compound 111] | 5.8 |  | 1.1 | 5.2 | > 50 | > 50 | > 300 |  |  |  |  |  | 
14 | NCc1ccc(C(=O)N[C@@H](Cc2ccc(OCc3ccccc3)cc2)C(=O)Nc2ccc(C(=O)O)cc2)cc1 [compound 139] |  | > 1000 | 190 | > 1000 | > 1000 | > 1000 | > 1000 |  |  |  |  |  | 
15 | COc1ccc(NC(=O)[C@H](Cc2ccc(OCc3ccccc3)cc2)NC(=O)c2ccc(CN)cc2)cn1 [compound 140] |  | > 200 | 2.5 | 8.8 |  | 18 | > 100 | > 200 |  |  |  |  | 
16 | CC(=O)c1ccc(NC(=O)[C@H](Cc2ccc(OC(=O)OCc3ccccc3Cl)cc2)NC(=O)[C@H]2CC[C@H](CN)CC2)cc1 [compound 145] |  | > 50 | 0.075 | 0.56 | 86 | 0.75 | 31 |  |  |  |  |  | 
17 | CC(=O)c1ccc(NC(=O)[C@H](Cc2ccc(OC(=O)OCc3ccccc3)cc2)NC(=O)[C@H]2CC[C@H](CN)CC2)cc1 [compound 146] |  | > 100 | 0.29 | 0.64 | > 100 | 0.58 | 45 |  |  |  |  |  | 
